{"source": "patent US20220000811A1", "about": "“COMPOSITION FOR PROMOTING HAIR GROWTH COMPRISING A GUANINE DERIVATIVE” (KOREA RESEARCH INSTITUTE OF BIOSCIENCE AND BIOTECHNOLOGY, priority 2019, published 2022)", "key": {"[1]": {"tested_on": "mouse embryonic fibroblasts (MEFs)", "experiment": "Reprogramming into iPSCs (OSKM) in mouse embryonic fibroblasts, AP staining", "type": "cell-based", "conditions": "for effect on reprogramming, number of AP+ colonies: MEFs, OSKM, after 14 days, indicated concentrations", "method": "During reprogramming into iPSCs by introducing OSKM reprogramming factor into mouse embryonic fibroblasts (MEFs), rotenone, the guanidine derivatives of the present invention, and phenformin were treated at the indicated concentrations. After 14 days, alkaline phosphatase (AP) staining was performed (FIG. 2A), and the number of AP^+ colonies was quantified (FIG. 2b). […] In the subsequent experiment, additional efficacy was evaluated using only the three compounds showing the effective reprogramming-enhancing effect."}, "[2]": {"tested_on": "human foreskin fibroblast (HFFs)", "experiment": "Reprogramming into iPSCs (OSKM) in human foreskin fibroblasts, AP staining", "type": "cell-based", "conditions": "OSKM, after 28 days", "method": "After 28 days, AP staining was performed (FIG. 3a), and the number of AP^+ colonies was quantified (FIG. 3b)."}, "[3]": {"tested_on": "human embryonic stem cells (hESCs)", "experiment": "Maintaining stemness of human embryonic stem cells in unconditioned medium, AP staining", "type": "cell-based", "conditions": "hESCs in unconditioned medium, low dose", "method": "Additionally, the effect of the compounds of the present invention on maintaining sternness of human embryonic stern cells (hESCs) was confirmed (FIG. 4). Specifically, when hESCs were cultured in an unconditioned medium (UM), the sternness was lost, and AP activity was weakened (FIG. 4a). […] In particular, when IM176OUT05 was treated at 10 nM and 100 nM concentrations, it was confirmed that the effect of maintaining the sternness was improved by 7.6 times and 8.2 times, respectively (FIG. 4b)."}, "C57BL/6 mice": {"tested_on": "C57BL/6 mice", "experiment": "Hair regeneration model, darkness of dorsal skin and hair growth", "type": "in vivo, mouse", "conditions": "1% topical daily", "method": "During the hair telogen phase, the hair on the dorsal skin of 7-week-old C57BL/6 mice (Dae Han BioLink, Chungbuk, Republic of Korea) was depilated using an animal clipper and wax (Veet, Oxy Reckitt Benckiser, Seoul, Republic of Korea). From the next day, 200 μL of placebo (control), 1% IM, 1% minoxidil, or 1% metformin was applied daily to the depilated area using a sterile cotton swab. Images of each animal were captured daily, and the degree of darkness of the color on dorsal skin was quantified in the same area (1.6 cm×3 cm) using the Image J program. The mice were sacrificed, and skin tissues on days 0, 7, 14, and 20 were obtained. Half of the tissues were used for RNA isolation, and the other half were fixed with 4% paraformaldehyde overnight for histochemical analysis. It was confirmed whether the IM compound can promote hair growth without showing toxicity or other side effects through mouse experiments. In 7-week-old C57BL/6 mice, the telogen phase was motivated by hair removal, and various concentrations of IM were applied topically to the dorsal skin of the mice daily."}, "[4]": {"tested_on": "K15/β-catenin, Ki67/Shh, K15/PDK, Ki67/PDH populations", "experiment": "FACS analysis of single skin cells", "type": "in vivo, mouse", "method": "During the hair telogen phase, the hair on the dorsal skin of 7-week-old C57BL/6 mice (Dae Han BioLink, Chungbuk, Republic of Korea) was depilated using an animal clipper and wax (Veet, Oxy Reckitt Benckiser, Seoul, Republic of Korea). From the next day, 200 μL of placebo (control), 1% IM, 1% minoxidil, or 1% metformin was applied daily to the depilated area using a sterile cotton swab. Images of each animal were captured daily, and the degree of darkness of the color on dorsal skin was quantified in the same area (1.6 cm×3 cm) using the Image J program. The mice were sacrificed, and skin tissues on days 0, 7, 14, and 20 were obtained. Half of the tissues were used for RNA isolation, and the other half were fixed with 4% paraformaldehyde overnight for histochemical analysis. After the mice were perfused with PBS to remove blood, the skin tissue was harvested and cut into small pieces. The tissue was digested with trypsin (Thermo Fisher Scientific) at 37° C. for 150 minutes, then filtered through a 75 μm nylon mesh, followed by filtering through a 30 μm mesh (BD Biosciences). Single cells were fixed, permeabilized, and blocked according to the immunostaining protocol. The cells were stained with specific antibodies (Table 1 above) and analyzed with BD Accuri™ C6 (BD Biosciences)"}}}
{"smiles": "NC(=Nc1ccc(OC(F)(F)F)cc1)N=C(N)N1CCCC1", "note": "[IM156]", "values": [{"measurement": "effect on reprogramming, number of AP+ colonies", "setting": "[1]", "result": "did not show an effect of promoting reprogramming"}]}
{"smiles": "N=C(N)NC(=N)NCCc1ccc(Cl)c(Cl)c1", "note": "[IM176OUT04, N-1-(3,4-dichloro)phenethylbiguanide]", "values": [{"measurement": "concentration with the most excellent reprogramming efficacy", "setting": "[2]", "result": 10, "unit": "nM"}, {"measurement": "AP staining (stemness)", "setting": "[3]", "result": "increase in AP staining"}, {"measurement": "effect on reprogramming, number of AP+ colonies", "setting": "[1]", "result": "increased"}]}
{"smiles": "Cc1ccc(CCNC(=N)N)cc1C", "note": "[IM177OUT02, 1-(3,4-dimethylphenethyl)guanide]", "values": [{"measurement": "concentration with the most excellent reprogramming efficacy", "setting": "[2]", "result": 10, "unit": "nM"}, {"measurement": "AP staining (stemness)", "setting": "[3]", "result": "increase in AP staining"}, {"measurement": "effect on reprogramming, number of AP+ colonies", "setting": "[1]", "result": "increased"}]}
{"smiles": "C=C(C)[C@H]1Cc2c(ccc3c2O[C@@H]2COc4cc(OC)c(OC)cc4[C@@H]2C3=O)O1", "note": "[Rotenone, reference compound]", "values": [{"measurement": "promotion of reprogramming of somatic cells", "setting": "[1]; sub-toxic dose (10 nM)", "result": "efficiently promote reprogramming"}]}
{"smiles": "CN(C)C(=N)N=C(N)N", "note": "[metformin, reference compound]", "values": [{"measurement": "hair growth effect overall", "setting": "C57BL/6 mice", "result": "did not show a remarkable effect"}, {"measurement": "darkness intensity on the dorsal skin compared to control", "setting": "C57BL/6 mice; from day 8", "result": "slightly was increased"}]}
{"smiles": "Nc1cc(N2CCCCC2)nc(N)[n+]1[O-]", "note": "[minoxidil, reference compound]", "values": [{"measurement": "K15+/β-catenin+ population in single skin cells", "setting": "[4]; day 7, FACS", "result": 6.0, "unit": "%"}, {"measurement": "Ki67+/PDH+ population", "setting": "[4]; day 7, FACS", "result": 8.3, "unit": "%"}, {"measurement": "Ki67+/Shh+ population in single skin cells", "setting": "[4]; day 20, FACS", "result": 34, "unit": "%"}]}
{"smiles": "[H]/N=C(/N)N/C(=N/[H])NCCc1ccccc1", "note": "[phenformin, reference compound]", "values": [{"measurement": "effect on reprogramming, number of AP+ colonies", "setting": "[1]", "result": "did not show an effect of promoting reprogramming"}]}
